Assay results published in US9730940B2, “Purine inhibitors of human phosphatidylinositol 3-kinase delta” (priority 2012, dated 2017).

biological target: PI3K-alpha (Homo sapiens (Human), UniProt P42336); assay: HTRF PI3K biochemical assay, alpha isoform; conditions: ratio PI3K-alpha IC50 value/PI3K-delta IC50 value
From the text: HTRF PI3K Biochemical Assay to Measure Intrinsic Potency of Compound Inhibitors
The PI3-Kinase biochemical assays were developed to measure the intrinsic potency and compound dependent inhibition of the alpha, beta, delta, and gamma PI3K isoform enzymes. This assay was developed and further optimized from a kit produced by Upstate (Millipore catalog #33-047) and has been configured for HTS and SAR screening. Briefly, this procedure exploits the exquisite specificity and high affinity binding of enzyme reaction substrate phosphatidyl(3,4,5)triphosphate (PIP3) to the GRP1 pleckstrin homology (PH) domain to generate the signal. In the absence of PIP3, an HTRF (Homogeneous Time-Resolved Fluorescence energy transfer) complex is formed consisting of europium (Eu)-labeled anti-GST, GST tagged GRP1-PH domain, biotin-PIP3 and streptavidin conjugated APC. The native PIP3 produced by PI3-Kinase activity disrupts in a competitive manner the biotin-PIP3 from the PH domain, resulting in the loss of energy transfer (HTRF complex) and a decrease in the signal. The format of this assay is the same for all 4 isoforms of PI3K; the differences lie in the concentration of enzyme used to achieve robust assay window. The alpha, beta, and delta assays are run at 0.5, 1, and 0.3 nM enzymes and the gamma assay is run at 5 nM enzyme. The ATP concentration is 100 uM in the alpha, beta, and delta assays and 50 uM ATP in the gamma assay. All reactions are run at 5 uM PIP2.
Compounds are serially diluted (3-fold in 100% DMSO) across a 384-well polypropylene source plated from column 3 to column 12 and column 13 to column 22, to yield 10 concentration dose response for each test compound. Columns 1, 2, 23 and 24 contain either only DMSO or pharmacological known control inhibitor.
The PI3-Kinase biochemical assay was optimized using the HTRF kit provided by Upstate (Millipore). The assay kit contains six reagents: 1) 4× Reaction Buffer; 2) native PIP2 (substrate); 3) Stop (EDTA); 4) Detection Mix A (Streptavidin-APC); 5) Detection Mix B (Eu-labeled Anti-GST plus GST-tagged PH-domain); 6) Detection Mix C.
PI3Kinase Reaction Buffer is prepared by dilution the stock 1:4 with de-ionized water. […] Enzyme addition and compound pre-incubation are initiated by the addition of 1.25 ul of PI3K (at twice its final concentration) in the 1× reaction buffer to all wells using a BioRaptor. Plates are incubated at room temperature for 15 minutes. Reactions are initiated by addition of 1.25 ul of 2× substrate solution (PIP2 and ATP in 1× reaction buffer) using BioRaptor. Plates are incubated in humidified chamber at room temperature for one hour. Reactions are quenched by addition of 0.625 uL of stop solution to all wells using the BioRaptor. The quenched reactions are then processed to detect product formation by adding 0.625 uL of Detection Solution to all wells using the BioRaptor (Detection mix C, Detection Mix A, and Detection Mix B combined together in an 18:1:1 ratio prepared 2 hours prior to use).
The loss of the HTRF signal is due to the displacement of biotinylated-PIP3 from the PH domain by the PI3K-dependent conversion of PIP2 to PIP3. This loss of signal is nonlinear with respect to both increasing product and time. This non-linear detection will impact accuracy of IC50 calculations; therefore, there is a need for a correction factor to obtain more accurate IC50 values. This correction is derived from a PIP3 standard curve run in a separate assay plate. All data were calculated using the ratio of acceptor (APC) to donor (Europium) fluorescence in each well of the assay plate. […] An IC50 was then calculated fitting the % inhibition data to the equation: % inhibition=min+(Max−min)/1+([inhibitor]/IC50)^n) where min is the % inhibition […], max is the signal in DMSO control, and n is the Hill slope.

Chain of PI3K-alpha (P42336 whole entry, looked up, canonical isoform): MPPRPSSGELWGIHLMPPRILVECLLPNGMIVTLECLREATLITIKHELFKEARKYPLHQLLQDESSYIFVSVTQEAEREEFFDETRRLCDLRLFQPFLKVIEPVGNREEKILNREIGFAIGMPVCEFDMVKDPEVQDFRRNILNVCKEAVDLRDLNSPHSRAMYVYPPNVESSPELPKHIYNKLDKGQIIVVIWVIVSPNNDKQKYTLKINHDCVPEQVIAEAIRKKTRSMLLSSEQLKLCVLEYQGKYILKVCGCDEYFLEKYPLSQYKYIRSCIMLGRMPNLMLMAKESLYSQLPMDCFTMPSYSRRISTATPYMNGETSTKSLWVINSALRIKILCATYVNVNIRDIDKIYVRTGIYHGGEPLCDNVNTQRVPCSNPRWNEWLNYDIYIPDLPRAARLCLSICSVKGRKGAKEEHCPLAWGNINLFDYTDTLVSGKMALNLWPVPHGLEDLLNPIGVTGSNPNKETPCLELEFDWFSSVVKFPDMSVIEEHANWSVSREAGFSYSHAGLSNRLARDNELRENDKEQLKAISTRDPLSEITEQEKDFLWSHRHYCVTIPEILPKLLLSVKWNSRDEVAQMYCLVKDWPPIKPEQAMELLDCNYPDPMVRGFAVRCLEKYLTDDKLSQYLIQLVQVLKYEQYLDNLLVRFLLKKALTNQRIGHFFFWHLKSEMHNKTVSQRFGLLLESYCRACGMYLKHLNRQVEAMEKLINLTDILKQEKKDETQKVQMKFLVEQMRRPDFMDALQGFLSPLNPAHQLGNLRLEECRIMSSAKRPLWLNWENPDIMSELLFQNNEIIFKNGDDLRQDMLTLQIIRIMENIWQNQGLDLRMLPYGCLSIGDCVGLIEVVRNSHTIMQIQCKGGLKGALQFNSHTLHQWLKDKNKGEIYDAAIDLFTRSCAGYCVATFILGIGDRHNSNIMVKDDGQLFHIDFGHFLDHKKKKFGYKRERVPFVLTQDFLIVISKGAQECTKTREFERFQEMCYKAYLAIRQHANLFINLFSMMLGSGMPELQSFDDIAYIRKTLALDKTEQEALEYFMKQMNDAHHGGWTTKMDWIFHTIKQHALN
Chain of PI3K-alpha (P27986 whole entry partner, looked up, canonical isoform): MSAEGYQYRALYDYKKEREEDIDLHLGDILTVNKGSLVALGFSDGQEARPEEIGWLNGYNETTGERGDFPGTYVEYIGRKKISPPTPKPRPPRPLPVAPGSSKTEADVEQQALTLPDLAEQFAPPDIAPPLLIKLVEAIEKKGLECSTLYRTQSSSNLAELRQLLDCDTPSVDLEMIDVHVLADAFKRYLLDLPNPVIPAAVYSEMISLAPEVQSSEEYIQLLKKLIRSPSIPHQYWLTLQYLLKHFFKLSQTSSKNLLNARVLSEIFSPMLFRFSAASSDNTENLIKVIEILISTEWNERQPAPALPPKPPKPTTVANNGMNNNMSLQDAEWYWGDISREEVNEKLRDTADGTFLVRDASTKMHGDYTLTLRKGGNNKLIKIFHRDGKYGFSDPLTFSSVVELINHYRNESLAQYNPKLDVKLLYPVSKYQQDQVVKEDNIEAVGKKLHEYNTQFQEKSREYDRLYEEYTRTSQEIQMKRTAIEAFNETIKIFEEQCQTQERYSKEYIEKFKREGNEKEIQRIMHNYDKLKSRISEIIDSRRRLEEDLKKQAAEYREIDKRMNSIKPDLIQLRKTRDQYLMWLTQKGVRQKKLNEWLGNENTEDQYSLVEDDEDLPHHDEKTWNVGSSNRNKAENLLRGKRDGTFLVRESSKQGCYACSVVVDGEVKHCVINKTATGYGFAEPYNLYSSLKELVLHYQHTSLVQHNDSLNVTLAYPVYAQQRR

Row | SMILES | Relative Selectivity versus PI3Kalpha
1 | Cn1c(-c2ccc(N3CCOCC3)nc2)nc2c(O[C@H]3CCN(C(=O)OC(C)(C)C)C3)ncnc21 [Compound 1-24, tert-butyl (3S)-3-{[9-methyl-8-(6-morpholin-4-ylpyridin-3-yl)-9H-purin-6-yl]oxy}pyrrolidine-1-carboxylate] | >2
2 | Cn1c(-c2ccc(-n3ccnc3)cc2)nc2c(O[C@H]3CCN(C(=O)OC(C)(C)C)C3)ncnc21 [Compound 1-25, tert-butyl (3S)-3-({8-[4-(1H-imidazol-1-yl)phenyl]-9-methyl-9H-purin-6-yl}oxy)pyrrolidine-1-carboxylate] | >10
3 | Cc1n[nH]cc1-c1nc2c(O[C@H]3CCN(C(=O)OC(C)(C)C)C3)ncnc2n1C [Compound 1-26, tert-butyl (3S)-3-{[9-methyl-8-(3-methyl-1H-pyrazol-4-yl)-9H-purin-6-yl]oxy}pyrrolidine-1-carboxylate] | >10
4 | Cn1c(-c2ccc(N3CCCC3)nc2)nc2c(O[C@H]3CCN(C(=O)OC(C)(C)C)C3)ncnc21 [Compound 1-27, tert-butyl (3S)-3-{[9-methyl-8-(6-pyrrolidin-1-ylpyridin-3-yl)-9H-purin-6-yl]oxy}pyrrolidine-1-carboxylate] | >10
5 | Cn1c(-c2cncc3ccccc23)nc2c(O[C@H]3CCN(C(=O)OC(C)(C)C)C3)ncnc21 [Compound 1-28, tert-butyl (3S)-3-[(8-isoquinolin-4-yl-9-methyl-9H-purin-6-yl)oxy]pyrrolidine-1-carboxylate] | >10
6 | Cn1c(-c2ccc3[nH]ncc3c2)nc2c(O[C@H]3CCN(C(=O)OC(C)(C)C)C3)ncnc21 [Compound 1-29, tert-butyl (3S)-3-{[8-(1H-indazol-5-yl)-9-methyl-9H-purin-6-yl]oxy}pyrrolidine-1-carboxylate] | >10
7 | CCn1ncc(-c2nc3c(OC4CC(C)N(C(=O)OC(C)(C)C)C4)ncnc3n2C)c1C (stereo not drawn) [Compound 1-30, tert-butyl 4-((8-(1-ethyl-5-methyl-1H-pyrazol-4-yl)-9-methyl-9H-purin-6-yl)oxy)-2-methylpyrrolidine-1-carboxylate] | 3
8 | COC1CC(c2nc3c(OC4CCN(C(=O)OC(C)(C)C)C4)ncnc3n2C)C1 [Compound 1-31, (S)-tert-butyl 3-((8-(3-methoxycyclobutyl)-9-methyl-9H-purin-6-yl)oxy)pyrrolidine-1-carboxylate] | >5
9 | Cn1cnc2c(O[C@H]3CCN(C(=O)OC(C)(C)C)C3)ncnc21 [Compound 1-32, (S)-tert-butyl 3-((9-methyl-9H-purin-6-yl)oxy)pyrrolidine-1-carboxylate] | >7
10 | Cc1n[nH]c2ncc(-c3nc4c(O[C@H]5CCN(C(=O)OC(C)(C)C)C5)ncnc4n3C)cc12 [Compound 1-33, (S)-tert-butyl 3-((9-methyl-8-(3-methyl-1H-pyrazolo[3,4-b]pyridin-5-yl)-9H-purin-6-yl)oxy}pyrrolidine-1-carboxylate] | >10
11 | CCn1c(-c2cnc(OC)c(C)c2)nc2c(O[C@H]3CCN(C(=O)OC(C)(C)C)C3)ncnc21 [Compound 1-34, tert-butyl (3S)-3-{[9-ethyl-8-(6-methoxy-5-methylpyridin-3-yl)-9H-purin-6-yl]oxy}pyrrolidine-1-carboxylate] | >10
12 | CCn1c(-c2cnc(C(C)(C)C)s2)nc2c(O[C@H]3CCN(C(=O)OC(C)(C)C)C3)ncnc21 [Compound 1-35, tert-butyl (3S)-3-{[8-(2-tert-butyl-1,3-thiazol-5-yl)-9-ethyl-9H-purin-6-yl]oxy}pyrrolidine-1-carboxylate] | >10
13 | CCn1ncc(-c2nc3c(O[C@H]4CCN(C(=O)OC)C4)ncnc3n2C)c1C [Compound 1-36, methyl (3S)-3-{[8-(1-ethyl-5-methyl-1H-pyrazol-4-yl)-9-methyl-9H-purin-6-yl]oxy}pyrrolidine-1-carboxylate] | >10
14 | CCOC(=O)N1CC[C@H](Oc2ncnc3c2nc(-c2cnn(CC)c2C)n3C)C1 [Compound 1-37, ethyl (3S)-3-{[8-(1-ethyl-5-methyl-1H-pyrazol-4-yl)-9-methyl-9H-purin-6-yl]oxy}pyrrolidine-1-carboxylate] | >10
15 | CCn1ncc(-c2nc3c(O[C@H]4CCN(C(=O)OC(C)C)C4)ncnc3n2C)c1C [Compound 1-38, 1-methylethyl (3S)-3-{[8-(1-ethyl-5-methyl-1H-pyrazol-4-yl)-9-methyl-9H-purin-6-yl]oxy}pyrrolidine-1-carboxylate] | >10
16 | Cn1c(-c2cnc(C(C)(C)C)s2)nc2c(O[C@H]3CCN(C(=O)OC(C)(C)C)C3)ncnc21 [Compound 1-39, tert-butyl (3S)-3-{[8-(2-tert-butyl-1,3-thiazol-5-yl)-9-methyl-9H-purin-6-yl]oxy}pyrrolidine-1-carboxylate] | >10
17 | CCn1ncc(-c2nc3c(OC4CN(C(=O)OC(C)(C)C)C4)ncnc3n2C)c1C [Compound 1-40, tert-butyl 3-((8-(1-ethyl-5-methyl-1H-pyrazol-4-yl)-9-methyl-9H-purin-6-yl)oxy)azetidine-1-carboxylate] | >10
18 | CCn1ncc(-c2nc3c(O[C@H]4CCCN(C(=O)OC(C)(C)C)C4)ncnc3n2C)c1C [Compound 1-41, (S)-tert-butyl 3-((8-(1-ethyl-5-methyl-1H-pyrazol-4-yl)-9-methyl-9H-purin-6-yl)oxy)piperidine-1-carboxylate] | >10
19 | CCn1ncc(-c2nc3c(O[C@@H]4CCCN(C(=O)OC(C)(C)C)C4)ncnc3n2C)c1C [Compound 1-42, (R)-tert-butyl 3-((8-(1-ethyl-5-methyl-1H-pyrazol-4-yl)-9-methyl-9H-purin-6-yl)oxy)piperidine-1-carboxylate] | >2
20 | CCOC(=O)N1CC[C@H](Oc2ncnc3c2nc(-c2cnc(C)nc2)n3CC)C1 [Compound 1-43, (S)-ethyl 3-{[9-ethyl-8-(2-methylpyrimidin-5-yl)-9H-purin-6-yl]oxy}pyrrolidine-1-carboxylate] | >10
21 | CCn1c(-c2cnc(C)nc2)nc2c(OC3CN(C(=O)OC(C)(C)C)CC3F)ncnc21 [Compound 1-44, [(3S,4S) and (3R,4R)]-tert-butyl 3-{[9-ethyl-8-(2-methylpyrimidin-5-yl)-9H-purin-6-yl]oxy}-4-fluoropyrrolidine-1-carboxylate] | >10
22 | CCC1CN(C(=O)OCc2ccccc2)CC1Oc1ncnc2c1nc(-c1cnc(C)nc1)n2CC [Compound 1-45, [(3S,4R) and (3R,4S)]-benzyl 3-ethyl-4-{[9-ethyl-8-(2-methylpyrimidin-5-yl)-9H-purin-6-yl]oxy}pyrrolidine-1-carboxylate] | >10
23 | CCn1c(-c2cnc(C)nc2)nc2c(OC3CN(C(=O)OC(C)(C)C)CC3O)ncnc21 [Compound 1-46, [(3S,4S) and (3R,4R)]-tert-butyl 3-{[9-ethyl-8-(2-methylpyrimidin-5-yl)-9H-purin-6-yl]oxy}-4-hydroxypyrrolidine-1-carboxylate] | >10
24 | CCn1c(-c2cnc(C)nc2)nc2c(OC3CN(C(=O)OC(C)(C)C)CC3(F)F)ncnc21 (stereo not drawn) [Compound 1-47, (4S and 4R)-tert-butyl 4-{[9-ethyl-8-(2-methylpyrimidin-5-yl)-9H-purin-6-yl]oxy}-3,3-difluoropyrrolidine-1-carboxylate] | >10
